What was measured:
[1] = target: Ephrin type-A receptor 2 (Homo sapiens) (UniProt P29317); conditions: Compound concentration 1000.0 nM
[2] = target: Serine/threonine-protein kinase tousled-like 1 (Homo sapiens) (UniProt Q9UKI8); conditions: Compound concentration 1000.0 nM
[3] = target: Calcium/calmodulin-dependent protein kinase kinase 1 (Homo sapiens) (UniProt Q8N5S9); conditions: Compound concentration 1000.0 nM
[4] = tested on: Epidermal growth factor receptor (Homo sapiens), P00533 [L858R]; conditions: Compound concentration 1000.0 nM
[5] = target: Tyrosine-protein kinase Srms (Homo sapiens) (UniProt Q9H3Y6); conditions: Compound concentration 1000.0 nM
[6] = target: Serine/threonine-protein kinase PAK 1 (Homo sapiens) (UniProt Q13153); conditions: Compound concentration 1000.0 nM
[7] = target: Mitogen-activated protein kinase 9 (Homo sapiens) (UniProt P45984); conditions: Compound concentration 1000.0 nM
[8] = target: Mitogen-activated protein kinase 3 (Homo sapiens) (UniProt P27361); conditions: Compound concentration 1000.0 nM
[9] = target: Cyclin-dependent kinase-like 2 (Homo sapiens) (UniProt Q92772); conditions: Compound concentration 1000.0 nM
[10] = target: Macrophage-stimulating protein receptor (Homo sapiens) (UniProt Q04912); conditions: Compound concentration 1000.0 nM
[11] = target: 5-hydroxytryptamine receptor 5A (Homo sapiens) (UniProt P47898); conditions: Compound concentration 10.0 uM
[12] = target: Fibroblast growth factor receptor 2 (Homo sapiens) (UniProt P21802); conditions: Compound concentration 1000.0 nM
[13] = target: Phosphatidylinositol 4,5-bisphosphate 3-kinase catalytic subunit alpha isoform (Homo sapiens) (UniProt P42336); conditions: Compound concentration 1000.0 nM
[14] = target: Serine/threonine-protein kinase PLK2 (Homo sapiens) (UniProt Q9NYY3); conditions: Compound concentration 1000.0 nM
[15] = target: Cyclin-G-associated kinase (Homo sapiens) (UniProt O14976); conditions: Compound concentration 1000.0 nM
[16] = target: Serine/threonine-protein kinase Nek9 (Homo sapiens) (UniProt Q8TD19); conditions: Compound concentration 1000.0 nM
[17] = target: Mitogen-activated protein kinase 1 (Homo sapiens) (UniProt P28482); conditions: Compound concentration 1000.0 nM
[18] = target: 5-hydroxytryptamine receptor 2C (Homo sapiens) (UniProt P28335); conditions: Compound concentration 10.0 uM
[19] = target: Microtubule-associated serine/threonine-protein kinase 1 (Homo sapiens) (UniProt Q9Y2H9); conditions: Compound concentration 1000.0 nM
Microtubule-associated serine/threonine-protein kinase 1 (Homo sapiens), sequence (Q9Y2H9 whole entry, looked up): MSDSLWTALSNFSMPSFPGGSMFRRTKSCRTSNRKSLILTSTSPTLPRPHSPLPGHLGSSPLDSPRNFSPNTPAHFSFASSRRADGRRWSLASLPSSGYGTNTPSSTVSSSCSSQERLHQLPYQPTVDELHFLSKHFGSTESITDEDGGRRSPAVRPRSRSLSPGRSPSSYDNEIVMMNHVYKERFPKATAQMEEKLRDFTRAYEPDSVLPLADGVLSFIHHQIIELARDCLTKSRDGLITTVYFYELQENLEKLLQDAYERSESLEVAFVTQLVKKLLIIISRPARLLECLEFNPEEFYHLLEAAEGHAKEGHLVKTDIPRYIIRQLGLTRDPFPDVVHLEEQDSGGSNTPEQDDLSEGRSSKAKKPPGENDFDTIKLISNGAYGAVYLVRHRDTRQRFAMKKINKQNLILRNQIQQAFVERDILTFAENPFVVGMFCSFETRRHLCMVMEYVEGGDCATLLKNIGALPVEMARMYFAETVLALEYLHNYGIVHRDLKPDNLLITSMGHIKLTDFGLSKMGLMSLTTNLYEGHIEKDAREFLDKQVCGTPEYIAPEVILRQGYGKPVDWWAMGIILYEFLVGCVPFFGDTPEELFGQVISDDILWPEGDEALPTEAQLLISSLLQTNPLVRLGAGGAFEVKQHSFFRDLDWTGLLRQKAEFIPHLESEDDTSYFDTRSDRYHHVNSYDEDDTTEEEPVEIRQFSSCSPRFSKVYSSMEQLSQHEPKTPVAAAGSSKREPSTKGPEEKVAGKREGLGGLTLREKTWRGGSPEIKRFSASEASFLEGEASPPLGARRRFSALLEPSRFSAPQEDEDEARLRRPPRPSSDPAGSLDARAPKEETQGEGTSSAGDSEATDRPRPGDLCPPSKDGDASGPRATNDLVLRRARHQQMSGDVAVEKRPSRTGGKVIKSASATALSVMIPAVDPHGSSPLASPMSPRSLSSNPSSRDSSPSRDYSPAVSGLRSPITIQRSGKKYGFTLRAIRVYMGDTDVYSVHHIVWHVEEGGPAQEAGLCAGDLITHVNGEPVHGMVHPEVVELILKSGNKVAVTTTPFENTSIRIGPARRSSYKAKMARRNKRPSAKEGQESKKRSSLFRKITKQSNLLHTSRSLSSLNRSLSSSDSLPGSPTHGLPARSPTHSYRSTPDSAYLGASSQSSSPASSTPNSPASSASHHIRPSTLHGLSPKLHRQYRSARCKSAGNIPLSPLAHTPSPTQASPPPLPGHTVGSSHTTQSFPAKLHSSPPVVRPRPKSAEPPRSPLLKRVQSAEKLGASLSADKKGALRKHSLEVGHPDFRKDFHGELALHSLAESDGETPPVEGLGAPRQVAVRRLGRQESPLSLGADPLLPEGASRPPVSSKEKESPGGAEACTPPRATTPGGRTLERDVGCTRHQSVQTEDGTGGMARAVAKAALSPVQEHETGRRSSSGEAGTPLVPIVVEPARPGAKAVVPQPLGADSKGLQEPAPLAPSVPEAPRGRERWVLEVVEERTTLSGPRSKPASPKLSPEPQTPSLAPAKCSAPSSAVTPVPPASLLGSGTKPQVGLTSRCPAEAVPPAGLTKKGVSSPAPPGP

[20] = target: Serine/threonine-protein kinase TAO1 (Homo sapiens) (UniProt Q7L7X3); conditions: Compound concentration 1000.0 nM
[21] = target: Serine/threonine-protein kinase 26 (Homo sapiens) (UniProt Q9P289); conditions: Compound concentration 1000.0 nM
[22] = target: Aurora kinase B (Homo sapiens) (UniProt Q96GD4); conditions: Compound concentration 1000.0 nM
[23] = target: Serine/threonine-protein kinase WNK1 (Homo sapiens) (UniProt Q9H4A3); conditions: Compound concentration 1000.0 nM
[24] = target: Hormonally up-regulated neu tumor-associated kinase (Homo sapiens) (UniProt P57058); conditions: Compound concentration 1000.0 nM
[25] = target: Mitogen-activated protein kinase kinase kinase 2 (Homo sapiens) (UniProt Q9Y2U5); conditions: Compound concentration 1000.0 nM
[26] = target: 5-hydroxytryptamine receptor 6 (Homo sapiens) (UniProt P50406); conditions: Compound concentration 10.0 uM
[27] = target: BDNF/NT-3 growth factors receptor (Homo sapiens) (UniProt Q16620); conditions: Compound concentration 1000.0 nM
[28] = target: Alpha-2A adrenergic receptor (Homo sapiens) (UniProt P08913); conditions: Compound concentration 10.0 uM
[29] = target: Casein kinase II subunit alpha (Homo sapiens) (UniProt P68400); conditions: Compound concentration 1000.0 nM
[30] = target: Mu-type opioid receptor (Homo sapiens) (UniProt P35372); conditions: Compound concentration 10.0 uM
[31] = target: Serine/threonine-protein kinase 3 (Homo sapiens) (UniProt Q13188); conditions: Compound concentration 1000.0 nM
Serine/threonine-protein kinase 3 (Homo sapiens), sequence (Q13188 whole entry): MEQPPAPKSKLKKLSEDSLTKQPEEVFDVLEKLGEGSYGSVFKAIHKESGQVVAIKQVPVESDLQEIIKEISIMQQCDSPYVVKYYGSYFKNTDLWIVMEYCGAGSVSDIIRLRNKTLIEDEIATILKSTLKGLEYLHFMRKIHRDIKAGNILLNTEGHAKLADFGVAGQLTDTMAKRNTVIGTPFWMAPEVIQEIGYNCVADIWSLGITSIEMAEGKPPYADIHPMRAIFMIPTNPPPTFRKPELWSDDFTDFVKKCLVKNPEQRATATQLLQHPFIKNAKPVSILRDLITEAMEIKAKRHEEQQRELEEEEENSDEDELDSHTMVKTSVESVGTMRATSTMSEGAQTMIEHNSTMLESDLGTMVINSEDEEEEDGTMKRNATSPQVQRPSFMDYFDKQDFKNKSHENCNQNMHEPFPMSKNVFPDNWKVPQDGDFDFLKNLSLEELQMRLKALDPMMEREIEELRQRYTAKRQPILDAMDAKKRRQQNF

[32] = tested on: ALK tyrosine kinase receptor (Homo sapiens), Q9UM73 [L1196M]; conditions: Compound concentration 1000.0 nM
[33] = tested on: Tyrosine-protein kinase ABL1 (Homo sapiens), P00519 [T315I]; conditions: Compound concentration 1000.0 nM
[34] = target: Mitogen-activated protein kinase kinase kinase kinase 2 (Homo sapiens) (UniProt Q12851); conditions: Compound concentration 1000.0 nM
Mitogen-activated protein kinase kinase kinase kinase 2 (Homo sapiens), sequence (Q12851 whole entry): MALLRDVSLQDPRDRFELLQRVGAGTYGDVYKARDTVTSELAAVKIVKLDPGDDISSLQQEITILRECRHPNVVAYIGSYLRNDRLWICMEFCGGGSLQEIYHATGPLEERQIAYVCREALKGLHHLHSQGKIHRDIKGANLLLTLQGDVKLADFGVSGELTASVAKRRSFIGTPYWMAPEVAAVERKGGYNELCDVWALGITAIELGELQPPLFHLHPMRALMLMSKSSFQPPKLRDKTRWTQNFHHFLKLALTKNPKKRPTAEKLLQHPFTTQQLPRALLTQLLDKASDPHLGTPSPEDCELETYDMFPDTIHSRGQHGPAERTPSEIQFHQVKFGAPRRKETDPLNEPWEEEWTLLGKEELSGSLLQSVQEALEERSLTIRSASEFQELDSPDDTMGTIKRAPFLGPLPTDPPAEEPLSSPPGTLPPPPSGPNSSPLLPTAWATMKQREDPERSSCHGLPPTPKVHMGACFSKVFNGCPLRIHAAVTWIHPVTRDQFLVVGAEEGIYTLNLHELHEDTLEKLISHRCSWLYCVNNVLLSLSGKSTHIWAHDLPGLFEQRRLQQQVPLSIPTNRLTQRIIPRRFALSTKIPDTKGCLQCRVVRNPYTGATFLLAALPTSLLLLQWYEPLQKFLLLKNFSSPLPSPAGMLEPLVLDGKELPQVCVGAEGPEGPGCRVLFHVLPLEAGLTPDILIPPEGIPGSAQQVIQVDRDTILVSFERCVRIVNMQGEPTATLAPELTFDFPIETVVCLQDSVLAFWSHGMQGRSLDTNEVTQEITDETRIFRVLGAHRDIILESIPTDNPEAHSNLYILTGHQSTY

[35] = target: Serine/threonine-protein kinase 35 (Homo sapiens) (UniProt Q8TDR2); conditions: Compound concentration 1000.0 nM
[36] = target: Protein-tyrosine kinase 2-beta (Homo sapiens) (UniProt Q14289); conditions: Compound concentration 1000.0 nM
[37] = target: Serine/threonine-protein kinase 32B (Homo sapiens) (UniProt Q9NY57); conditions: Compound concentration 1000.0 nM
Serine/threonine-protein kinase 32B (Homo sapiens), sequence (Q9NY57 whole entry, the tested form may be a part): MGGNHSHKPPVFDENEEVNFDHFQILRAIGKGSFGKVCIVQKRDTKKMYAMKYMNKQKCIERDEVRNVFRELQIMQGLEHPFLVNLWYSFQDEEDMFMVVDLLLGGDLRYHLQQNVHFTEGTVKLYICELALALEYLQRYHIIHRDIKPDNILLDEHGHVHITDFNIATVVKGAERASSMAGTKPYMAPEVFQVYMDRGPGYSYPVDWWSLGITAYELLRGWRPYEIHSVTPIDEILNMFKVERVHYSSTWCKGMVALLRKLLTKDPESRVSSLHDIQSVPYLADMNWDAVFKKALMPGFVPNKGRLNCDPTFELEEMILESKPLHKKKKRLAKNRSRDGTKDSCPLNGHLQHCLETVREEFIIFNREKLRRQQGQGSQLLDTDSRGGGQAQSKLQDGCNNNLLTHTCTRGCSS

[38] = target: Discoidin domain-containing receptor 2 (Homo sapiens) (UniProt Q16832); conditions: Compound concentration 1000.0 nM
[39] = target: Ankyrin repeat and protein kinase domain-containing protein 1 (Homo sapiens) (UniProt Q8NFD2); conditions: Compound concentration 1000.0 nM
[40] = target: Serine/threonine-protein kinase 10 (Homo sapiens) (UniProt O94804); conditions: Compound concentration 1000.0 nM
[41] = target: High affinity nerve growth factor receptor (Homo sapiens) (UniProt P04629); conditions: Compound concentration 1000.0 nM
High affinity nerve growth factor receptor (Homo sapiens), sequence (P04629 33-796 limits assumed): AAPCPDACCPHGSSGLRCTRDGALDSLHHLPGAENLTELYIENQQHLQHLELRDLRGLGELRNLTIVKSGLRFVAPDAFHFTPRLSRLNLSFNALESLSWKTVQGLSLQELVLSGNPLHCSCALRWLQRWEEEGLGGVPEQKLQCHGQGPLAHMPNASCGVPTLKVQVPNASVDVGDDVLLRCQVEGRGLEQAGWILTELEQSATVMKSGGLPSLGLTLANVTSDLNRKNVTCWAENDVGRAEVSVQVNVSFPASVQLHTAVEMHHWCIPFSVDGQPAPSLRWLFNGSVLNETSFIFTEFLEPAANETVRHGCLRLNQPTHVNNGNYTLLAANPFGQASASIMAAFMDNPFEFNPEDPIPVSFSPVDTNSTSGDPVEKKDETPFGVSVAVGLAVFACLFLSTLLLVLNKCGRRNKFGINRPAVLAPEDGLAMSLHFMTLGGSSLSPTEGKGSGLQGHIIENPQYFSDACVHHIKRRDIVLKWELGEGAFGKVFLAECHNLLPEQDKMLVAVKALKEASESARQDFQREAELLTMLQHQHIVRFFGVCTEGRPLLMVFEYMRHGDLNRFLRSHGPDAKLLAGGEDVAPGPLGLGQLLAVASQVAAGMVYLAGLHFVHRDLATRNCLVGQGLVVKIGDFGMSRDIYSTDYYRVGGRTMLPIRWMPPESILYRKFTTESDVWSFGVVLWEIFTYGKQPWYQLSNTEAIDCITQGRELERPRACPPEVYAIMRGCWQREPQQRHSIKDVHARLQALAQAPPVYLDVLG

[42] = target: Cyclin-dependent kinase 5 (Homo sapiens) (UniProt Q00535); conditions: Compound concentration 1000.0 nM
[43] = target: Serine/threonine-protein kinase STK11 (Homo sapiens) (UniProt Q15831); conditions: Compound concentration 1000.0 nM
[44] = target: Serine/threonine-protein kinase PAK 5 (Homo sapiens) (UniProt Q9P286); conditions: Compound concentration 1000.0 nM
[45] = tested on: Receptor-type tyrosine-protein kinase FLT3 (Homo sapiens), P36888 [D835Y]; conditions: Compound concentration 1000.0 nM
[46] = target: Ribosomal protein S6 kinase alpha-5 (Homo sapiens) (UniProt O75582); conditions: Compound concentration 1000.0 nM
Ribosomal protein S6 kinase alpha-5 (Homo sapiens), sequence (O75582 whole entry, looked up): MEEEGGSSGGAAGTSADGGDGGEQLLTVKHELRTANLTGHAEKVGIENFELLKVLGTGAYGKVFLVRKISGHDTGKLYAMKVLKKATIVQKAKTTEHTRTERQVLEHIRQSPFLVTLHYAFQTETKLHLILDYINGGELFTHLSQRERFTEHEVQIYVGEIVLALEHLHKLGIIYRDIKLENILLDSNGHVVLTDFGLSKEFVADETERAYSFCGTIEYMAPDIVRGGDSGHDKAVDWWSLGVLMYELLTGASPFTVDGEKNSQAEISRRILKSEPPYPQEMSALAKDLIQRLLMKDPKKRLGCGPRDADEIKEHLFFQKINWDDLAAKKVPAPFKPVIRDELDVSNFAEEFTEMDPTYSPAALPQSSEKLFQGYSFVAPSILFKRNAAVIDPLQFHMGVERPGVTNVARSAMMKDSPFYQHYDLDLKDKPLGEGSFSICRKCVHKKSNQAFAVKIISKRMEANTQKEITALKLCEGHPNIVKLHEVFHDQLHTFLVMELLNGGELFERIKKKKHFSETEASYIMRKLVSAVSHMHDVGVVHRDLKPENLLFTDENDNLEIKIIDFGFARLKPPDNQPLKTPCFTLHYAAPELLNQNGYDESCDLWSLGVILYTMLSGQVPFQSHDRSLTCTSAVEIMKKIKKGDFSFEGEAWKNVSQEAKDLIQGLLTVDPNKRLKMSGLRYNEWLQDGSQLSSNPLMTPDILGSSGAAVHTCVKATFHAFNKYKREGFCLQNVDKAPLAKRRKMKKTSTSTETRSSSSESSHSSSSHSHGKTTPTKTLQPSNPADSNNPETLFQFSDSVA

Cc1c(NC(=O)c2cc(C(N)=O)nc3cc(F)ccc23)c(C(F)(F)F)nn1Cc1ccc(C(C)(C)C)cc1 [BAY-588]
inactive: residual activity [1] 97% | residual activity [2] 100% | residual activity [3] 98% | residual activity [4] 100% | residual activity [5] 100% | residual activity [6] 98% | residual activity [7] 100% | residual activity [8] 100% | residual activity [9] 100% | residual activity [10] 80% | inhibition [11] 8.32% | residual activity [12] 100% | residual activity [13] 100% | residual activity [14] 100% | residual activity [15] 98% | residual activity [16] 100% | residual activity [17] 71% | inhibition [18] -2.42% | residual activity [19] 100% | residual activity [20] 100% | residual activity [21] 100% | residual activity [22] 100% | residual activity [23] 100% | residual activity [24] 100% | residual activity [25] 100% | inhibition [26] -0.431% | residual activity [27] 100% | inhibition [28] 23.1% | residual activity [29] 100% | inhibition [30] 4.84% | residual activity [31] 90% | residual activity [32] 83% | residual activity [33] 100% | residual activity [34] 100% | residual activity [35] 100% | residual activity [36] 92% | residual activity [37] 100% | residual activity [38] 93% | residual activity [39] 100% | residual activity [40] 88% | residual activity [41] 89% | residual activity [42] 76% | residual activity [43] 100% | residual activity [44] 100% | residual activity [45] 100% | residual activity [46] 89%

Cc1c(NC(=O)c2cc(C(N)=O)nc3cc(F)ccc23)c(C(F)(F)F)nn1Cc1ccc(C#N)cc1 [BAY-876]
inactive: residual activity [1] 81% | residual activity [2] 79% | residual activity [3] 97% | residual activity [4] 97% | residual activity [5] 62% | residual activity [6] 100% | residual activity [7] 77% | residual activity [8] 85% | residual activity [9] 92% | residual activity [10] 76% | inhibition [11] -2.35% | residual activity [12] 88% | residual activity [13] 100% | residual activity [14] 78% | residual activity [15] 95% | residual activity [16] 95% | residual activity [17] 100% | inhibition [18] 6.9% | residual activity [19] 77% | residual activity [20] 93% | residual activity [21] 95% | residual activity [22] 72% | residual activity [23] 80% | residual activity [24] 77% | residual activity [25] 85% | inhibition [26] -0.383% | residual activity [27] 54% | inhibition [28] 0.0425% | residual activity [29] 78% | inhibition [30] 6.68% | residual activity [31] 96% | residual activity [32] 83% | residual activity [33] 100% | residual activity [34] 88% | residual activity [35] 85% | residual activity [36] 95% | residual activity [37] 100% | residual activity [38] 66% | residual activity [39] 80% | residual activity [40] 79% | residual activity [41] 83% | residual activity [42] 100% | residual activity [43] 100% | residual activity [44] 92% | residual activity [45] 92% | residual activity [46] 100%
